Molecular target: T1, integrin αIIbβ3 (Homo sapiens, UniProt P05106+P08514)
T1 construct: gene ITGA2B; Purified human integrin αIIbβ3; with integrin β3 (ITGB3, P05106)
Assay: ELISA: inhibition of purified human αIIbβ[…] binding to immobilized fibrinogen

T1 sequence (P08514 32-887): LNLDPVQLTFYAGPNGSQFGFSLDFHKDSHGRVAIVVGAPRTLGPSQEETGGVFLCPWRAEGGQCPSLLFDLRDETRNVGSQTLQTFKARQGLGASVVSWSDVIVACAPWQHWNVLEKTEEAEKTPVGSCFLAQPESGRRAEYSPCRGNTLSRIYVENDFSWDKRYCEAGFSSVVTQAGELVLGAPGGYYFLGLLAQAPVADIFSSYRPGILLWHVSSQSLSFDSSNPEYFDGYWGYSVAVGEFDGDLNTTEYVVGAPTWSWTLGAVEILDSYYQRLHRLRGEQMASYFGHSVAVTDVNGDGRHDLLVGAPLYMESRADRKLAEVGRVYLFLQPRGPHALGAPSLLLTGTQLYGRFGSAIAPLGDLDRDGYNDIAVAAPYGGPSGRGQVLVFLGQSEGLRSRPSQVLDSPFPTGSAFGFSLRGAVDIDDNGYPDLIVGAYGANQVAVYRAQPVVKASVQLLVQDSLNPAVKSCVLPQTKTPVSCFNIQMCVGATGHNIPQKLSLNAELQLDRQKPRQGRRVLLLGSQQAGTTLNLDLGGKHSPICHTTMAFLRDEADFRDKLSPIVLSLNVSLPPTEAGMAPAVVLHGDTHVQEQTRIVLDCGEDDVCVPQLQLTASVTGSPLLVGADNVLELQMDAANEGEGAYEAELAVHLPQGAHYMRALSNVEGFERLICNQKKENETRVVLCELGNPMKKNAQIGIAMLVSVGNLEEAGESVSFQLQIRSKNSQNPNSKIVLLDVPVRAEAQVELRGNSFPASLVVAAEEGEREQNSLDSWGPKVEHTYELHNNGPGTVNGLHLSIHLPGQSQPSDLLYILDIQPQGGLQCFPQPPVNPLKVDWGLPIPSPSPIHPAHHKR
T1 sequence (P08514 891-1039): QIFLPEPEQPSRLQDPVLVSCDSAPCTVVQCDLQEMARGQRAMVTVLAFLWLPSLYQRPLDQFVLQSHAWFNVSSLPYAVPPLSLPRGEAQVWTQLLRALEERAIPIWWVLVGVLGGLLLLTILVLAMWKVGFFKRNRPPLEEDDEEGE
T1 sequence (P05106 27-788): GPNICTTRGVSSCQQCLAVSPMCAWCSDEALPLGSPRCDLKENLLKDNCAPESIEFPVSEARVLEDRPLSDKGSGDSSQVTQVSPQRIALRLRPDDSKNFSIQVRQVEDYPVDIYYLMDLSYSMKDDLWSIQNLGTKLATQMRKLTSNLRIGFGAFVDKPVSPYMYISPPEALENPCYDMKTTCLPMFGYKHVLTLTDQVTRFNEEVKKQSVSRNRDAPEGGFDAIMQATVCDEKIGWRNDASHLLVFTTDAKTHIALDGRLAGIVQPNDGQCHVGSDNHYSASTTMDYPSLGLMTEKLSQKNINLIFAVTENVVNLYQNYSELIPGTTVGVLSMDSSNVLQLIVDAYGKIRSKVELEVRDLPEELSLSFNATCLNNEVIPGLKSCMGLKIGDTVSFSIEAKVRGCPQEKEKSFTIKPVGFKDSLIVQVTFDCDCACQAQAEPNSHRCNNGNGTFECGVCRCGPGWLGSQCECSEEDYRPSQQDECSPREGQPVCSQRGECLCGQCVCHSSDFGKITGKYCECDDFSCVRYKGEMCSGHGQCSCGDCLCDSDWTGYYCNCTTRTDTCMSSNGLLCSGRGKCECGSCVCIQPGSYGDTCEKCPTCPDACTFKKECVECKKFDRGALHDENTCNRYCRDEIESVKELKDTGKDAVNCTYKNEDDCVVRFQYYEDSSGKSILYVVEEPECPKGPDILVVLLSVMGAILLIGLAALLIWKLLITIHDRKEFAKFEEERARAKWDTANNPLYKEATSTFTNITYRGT

IC50: 370 nM
Structure (SMILES): COc1ccc(S(=O)(=O)NC(Cc2ccc3cc(OCCN4CCNCC4)ccc3c2)C(=O)O)cc1 (stereo not shown) [ANTP266, 2-((4-methoxyphenyl)sulfonamido)-3-(6-(2-(piperazin-1-yl)ethoxy)naphthalene-2-yl) propanoic acid]

— PMC6121621, “A Short Half-Life αIIbβ3 Antagonist ANTP266 Reduces Thrombus Formation” (International Journal of Molecular Sciences, 2018)
